Experimental findings from PubChem BioAssay AID330 (DTP/NCI, 2004) are described below.

Toxic doses and inconclusive results are not listed.

This experiment relates to P388 leukemia ip, CD2F1 mice, survival T/C. Description: NCI In Vivo Anticancer Drug Screen. Data for tumor model P388 Leukemia (intraperitoneal) in CD2F1 (CDF1) mice. The note with it: endpoint: median survival time, higher = longer survival. In a few lines: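 Mice carrying the transplanted tumor received test compound or vehicle. Survival was recorded in each group, and the value is the treated-group measurement divided by that of the vehicle-treated control group.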

The mark [1] stands for this setting: dose: 100.0 mg/kg/injection, schedule: Q01DX001 (ip), vehicle: Klucel (hydroxypropylcellulose) (HPC).
Setting [2] is: dose: 200.0 mg/kg/injection, schedule: Q01DX001 (ip), vehicle: Klucel (hydroxypropylcellulose) (HPC).
Setting [3] is: dose: 100.0 mg/kg/injection, schedule: Q04DX003 (ip), vehicle: Klucel (hydroxypropylcellulose) (HPC).
Where [4] appears, read: dose: 200.0 mg/kg/injection, schedule: Q04DX003 (ip), vehicle: Klucel (hydroxypropylcellulose) (HPC).
[5] abbreviates: dose: 400.0 mg/kg/injection, schedule: Q04DX003 (ip), vehicle: Klucel (hydroxypropylcellulose) (HPC).
The mark [6] stands for this setting: dose: 50.0 mg/kg/injection, schedule: Q01DX009 (ip), vehicle: saline with Tween-80.
The mark [7] stands for this setting: dose: 100.0 mg/kg/injection, schedule: Q01DX009 (ip), vehicle: saline with Tween-80.
Where [8] appears, read: dose: 200.0 mg/kg/injection, schedule: Q01DX009 (ip), vehicle: saline with Tween-80.
[9] abbreviates: dose: 50.0 mg/kg/injection, schedule: Q01DX009 (ip), vehicle: saline.
Setting [10] is: dose: 100.0 mg/kg/injection, schedule: Q01DX009 (ip), vehicle: saline.
[11] abbreviates: dose: 200.0 mg/kg/injection, schedule: Q01DX009 (ip), vehicle: saline.
Setting [12] is: dose: 50.0 mg/kg/injection, schedule: Q01DX009 (ip), vehicle: Klucel (hydroxypropylcellulose) (HPC).
Setting [13] is: dose: 100.0 mg/kg/injection, schedule: Q01DX009 (ip), vehicle: Klucel (hydroxypropylcellulose) (HPC).
Where [14] appears, read: dose: 200.0 mg/kg/injection, schedule: Q01DX009 (ip), vehicle: Klucel (hydroxypropylcellulose) (HPC).
Setting [15] is: dose: 25.0 mg/kg/injection, schedule: Q01DX009 (ip), vehicle: other.
Where [16] appears, read: dose: 60.0 mg/kg/injection, schedule: Q01DX005 (ip), vehicle: Klucel (hydroxypropylcellulose) (HPC).
Where [17] appears, read: dose: 120.0 mg/kg/injection, schedule: Q01DX005 (ip), vehicle: Klucel (hydroxypropylcellulose) (HPC).

On to `O=C(Oc1c(F)c(F)c(F)c(F)c1F)N(CCCl)CCCl`, for which the T/C under setting [1] is 101 % of control; the T/C under setting [2] is 104 % of control; the T/C (dose: 400.0 mg/kg/injection, schedule: Q01DX001 (ip), vehicle: Klucel (hydroxypropylcellulose) (HPC)) is 94 % of control.
Consider `CC(=O)Nc1ccc(/C=N/NC(=O)CNC(=O)c2ccccc2)cc1`, for which the T/C is 95 % of control (dose: 60.0 mg/kg/injection, schedule: Q01DX005 (ip), vehicle: saline with Tween-80) and 86 % of control (dose: 120.0 mg/kg/injection, schedule: Q01DX005 (ip), vehicle: saline with Tween-80).
With `Cc1nc(N)[nH]c(=O)c1-c1ccc(Cl)cc1`, the T/C is, setting by setting: under setting [3], 106 % of control; under setting [4], 105 % of control; under setting [5], 99 % of control.
Take `CC(C)=C/C(C)=N/NC(N)=O`: the T/C is, setting by setting: (dose: 12.5 mg/kg/injection, schedule: Q04DX003 (ip), vehicle: saline with Tween-80) 98 % of control; (dose: 25.0 mg/kg/injection, schedule: Q04DX003 (ip), vehicle: saline with Tween-80) 94 % of control; (dose: 50.0 mg/kg/injection, schedule: Q04DX003 (ip), vehicle: saline with Tween-80) 91 % of control; (dose: 100.0 mg/kg/injection, schedule: Q04DX003 (ip), vehicle: saline with Tween-80) 94 % of control.
On to `Nc1[nH]cnc(=S)c1N`, for which the T/C runs as follows: (dose: 100.0 mg/kg/injection, schedule: Q04DX002 (ip), vehicle: saline with Tween-80) 106 % of control; (dose: 200.0 mg/kg/injection, schedule: Q04DX002 (ip), vehicle: saline with Tween-80) 102 % of control; (dose: 400.0 mg/kg/injection, schedule: Q04DX002 (ip), vehicle: saline with Tween-80) 106 % of control.
On to `CC1=CC2C(O)(CC3(CO)OC3C3C4C(C)(C)C4(OC(=O)c4ccccc4)C(OC(=O)c4ccccc4)C(C)C32O)C1=O` (centres undefined), for which the T/C runs as follows: (dose: 50.0 micrograms/kg/injection, schedule: Q01DX005 (ip), vehicle: saline + alcohol) 94 % of control; (dose: 100.0 micrograms/kg/injection, schedule: Q01DX005 (ip), vehicle: saline + alcohol) 97 % of control; (dose: 200.0 micrograms/kg/injection, schedule: Q01DX005 (ip), vehicle: saline + alcohol) 99 % of control; (dose: 400.0 micrograms/kg/injection, schedule: Q01DX005 (ip), vehicle: saline + alcohol) 94 % of control; (dose: 800.0 micrograms/kg/injection, schedule: Q01DX005 (ip), vehicle: saline + alcohol) 105 % of control.
`CC(C)CCCCCc1ccc(OCCOc2ccc(C(=O)Nc3ccc(S(=O)(=O)F)cc3N)cc2)cc1`: the T/C is, setting by setting: (dose: 50.0 mg/kg/injection, schedule: Q04DX003 (ip), vehicle: saline sonified) 100 % of control; (dose: 100.0 mg/kg/injection, schedule: Q04DX003 (ip), vehicle: saline sonified) 100 % of control; (dose: 200.0 mg/kg/injection, schedule: Q04DX003 (ip), vehicle: saline sonified) 90 % of control.
Regarding `CC(C)C(Br)C(Br)c1ccccc1` (centres undefined), the T/C was 100 % of control under setting [6], 104 % of control under setting [7] and 104 % of control under setting [8].
Take `Cc1ncc[nH]1`: the T/C was 90 % of control under setting [9], 92 % of control under setting [10] and 89 % of control under setting [11].
For `C=C(C)C1CC=C(C)/C(=N/NC(=O)c2ccccn2)C1` (centres undefined), the T/C reads like this: under setting [3], 111 % of control; under setting [4], 94 % of control; under setting [5], 94 % of control.
In the case of `Clc1cccc(Cl)c1NC1=NCCS1`, the T/C by setting is: under setting [12], 92 % of control; under setting [13], 101 % of control.
On to `C#CCCCCCC#CCCCCCC#CC(=O)O`, for which the T/C by setting is: (dose: 100.0 mg/kg/injection, schedule: Q01DX001 (ip), vehicle: saline) 104 % of control; (dose: 200.0 mg/kg/injection, schedule: Q01DX001 (ip), vehicle: saline) 101 % of control.
For `O=C1OC2CSCC2O1` (centres undefined), the T/C by setting is: under setting [9], 96 % of control; under setting [10], 104 % of control; under setting [11], 101 % of control.
In the case of `COC(=O)C1CC(c2ccccc2)N(c2ccccc2)O1` (centres undefined), the T/C under setting [12] is 100 % of control, the T/C under setting [13] was 103 % of control and the T/C under setting [14] was 100 % of control.
Take `CN1c2ccccc2C(C)(C)C12Cc1c(N)ncc(C#N)c1N2` (centres undefined): the T/C under setting [6] is 91 % of control, the T/C under setting [7] was 88 % of control and the T/C under setting [8] was 93 % of control.
For `c1cc[c]([Sn]([NH]c2ncnc3[nH]cnc23)([NH]c2ncnc3[nH]cnc23)[c]2ccccc2)cc1`, the T/C is, setting by setting: (dose: 12.5 mg/kg/injection, schedule: Q01DX009 (ip), vehicle: saline) 123 % of control; under setting [13], 196 % of control.
As to `CC(C)CCCC(C)C1CCC2C3CCC4CC(OS(C)(=O)=O)CCC4(C)C3CCC12C` (centres undefined), the T/C was 96 % of control under setting [12], 106 % of control under setting [13] and 103 % of control under setting [14].
With `CN(C)C(CC(N)=O)C(=O)O` (centres undefined), the T/C (dose: 50.0 mg/kg/injection, schedule: Q01DX009 (ip), vehicle: water) is 101 % of control; the T/C (dose: 100.0 mg/kg/injection, schedule: Q01DX009 (ip), vehicle: water) was 102 % of control; the T/C (dose: 200.0 mg/kg/injection, schedule: Q01DX009 (ip), vehicle: water) was 97 % of control.
Regarding `COCOCCC1C=CCC2C(=O)C=C(OC)C(O)C12C` (centres undefined), the T/C reads like this: (dose: 50.0 mg/kg/injection, schedule: Q01DX005 (ip), vehicle: Klucel (hydroxypropylcellulose) (HPC)) 108 % of control; (dose: 100.0 mg/kg/injection, schedule: Q01DX005 (ip), vehicle: Klucel (hydroxypropylcellulose) (HPC)) 97 % of control; (dose: 200.0 mg/kg/injection, schedule: Q01DX005 (ip), vehicle: Klucel (hydroxypropylcellulose) (HPC)) 101 % of control.
Turning to `O=C(Nc1ccc(Cl)cc1C(F)(F)F)OCCCc1ccncc1`, the T/C was 98 % of control under setting [9], 91 % of control under setting [10] and 91 % of control under setting [11].
Consider `Cc1cc(NCCCNCCCNc2cc(C)nc3cc([N+](=O)[O-])ccc23)c2ccc([N+](=O)[O-])cc2n1`, for which the T/C reads like this: (dose: 12.5 mg/kg/injection, schedule: Q01DX009 (ip), vehicle: other) 150 % of control; under setting [15], 121 % of control.
As for `N#C/C(N)=C(\C#N)N=Cc1ccc(N(CCCl)CCCl)cc1`, the T/C reads like this: (dose: 50.0 mg/kg/injection, schedule: Q01DX005 (ip), vehicle: saline with Tween-80) 100 % of control; (dose: 100.0 mg/kg/injection, schedule: Q01DX005 (ip), vehicle: saline with Tween-80) 104 % of control; (dose: 200.0 mg/kg/injection, schedule: Q01DX005 (ip), vehicle: saline with Tween-80) 92 % of control.
As for `COc1ccc(C2OC3=C(Nc4cc(C)c(C)cc4N3)C2=O)cc1` (centres undefined), the T/C reads like this: under setting [16], 89 % of control; under setting [17], 89 % of control.
For the compound `CN=C1C=CC(=C(c2ccc(N(C)C)cc2)c2ccc(N(C)C)cc2)C=C1`, the T/C (dose: 6.25 mg/kg/injection, schedule: Q01DX005 (ip), vehicle: Klucel (hydroxypropylcellulose) (HPC)) was 119 % of control.
As for `CCOC(=O)C1Nc2ccc(Br)cc2C(C(=O)OCC)N1c1ccc(Br)cc1` (centres undefined), the T/C under setting [12] was 102 % of control, the T/C under setting [13] is 102 % of control and the T/C under setting [14] is 94 % of control.
With `Nc1ncc[n+]2c(COCCCl)[nH]nc12`, the T/C by setting is: under setting [1], 92 % of control; under setting [2], 92 % of control.
For `ONC(=Nc1cccc2ccccc12)C(=Nc1cccc2ccccc12)NO`, the T/C is 99 % of control under setting [16]; 102 % of control under setting [17]; 103 % of control (dose: 240.0 mg/kg/injection, schedule: Q01DX005 (ip), vehicle: Klucel (hydroxypropylcellulose) (HPC)).
`O=C(c1ccc([N+](=O)[O-])cc1)C(Br)C(Br)c1ccncc1` (centres undefined): the T/C under setting [15] is 110 % of control; the T/C (dose: 50.0 mg/kg/injection, schedule: Q01DX009 (ip), vehicle: other) was 104 % of control; the T/C (dose: 100.0 mg/kg/injection, schedule: Q01DX009 (ip), vehicle: other) was 106 % of control; the T/C (dose: 200.0 mg/kg/injection, schedule: Q01DX009 (ip), vehicle: other) was 103 % of control.
